The source of these data is patent US9630931B2, “Pharmaceutically active pyrazine derivatives” (Sentinel Oncology Limited, priority 2011, dated 2017).

The structures appear in SMILES notation. Where a name gives a salt, the structure may show the parent alone.

In general, IC50 refers to the concentration that inhibits the measured activity by half.

Assay [1] concerns the target Chk-1 kinase (Homo sapiens (Human), UniProt O14757). The assay can be described thus: Chk-1 kinase inhibiting activity (33P-ATP radiometric filter assay, CHKtide substrate). The format is biochemical. The note with it: recombinant full length GST-tagged CHK-1 0.5 nM, CHKtide 20 μM, 120 minutes at room temperature; read-out: IC50 against Chk-1 kinase. As for the experimental part: The compounds of the invention were tested for activity against Chk-1 kinase using the materials and protocols set out below.
Base Reaction buffer: 20 mM Hepes (pH 7.5), 10 mM MgCl2, 1 mM EGTA, 0.02% Brij35, 0.02 mg/ml BSA, 0.1 mM Na3VO4, 2 mM DTT, 1% DMSO
Required cofactors are added individually to each kinase reaction
(i) Prepare indicated substrate in freshly prepared Base Reaction Buffer
(ii) Deliver any required cofactors to the substrate solution above
(iii) Deliver indicated kinase into the substrate solution and gently mix
(iv) Deliver compounds in DMSO into the kinase reaction mixture
(v) Deliver ^33P-ATP (specific activity 0.01 μCi/μl final) into the reaction mixture to initiate the reaction.
(vi) Incubate kinase reaction for 120 minutes at room temperature
(vii) Reactions are spotted onto P81 ion exchange paper (Whatman #3698-915)
(viii) Wash filters extensively in 0.1% phosphoric acid.
(ix) Dry filters and measure counts in scintillation counter
Recombinant full length construct, N-terminal GST tagged, purified from insect cells.
No special measures were taken to activate this kinase.
Final concentration in assay=0.5 nM
Peptide sequence: [[…]]
Final concentration in assay=20 μM
No additional cofactors are added to the reaction mixture
From the results obtained by following the above protocol, the IC50 values against Chk-1 kinase of a number of the compounds of the Examples were determined and these are shown in Table 3.

Assay [2] relates to MOLM-13 cells. The assay can be described thus: Inhibition of cell growth in MOLM-13 cells (Alamar blue, 72 h). The format is cell-based. The note with it: Homo sapiens, 72 h incubation. The method, then:
(§1) Studies were carried out to test the effect of compounds on the inhibition of cell growth in MOLM-13 and MV4-11 cells.
(§2) The following protocol was used:
(§3) (a) Cells were seeded in 96-well plates at cell densities of 2500/well (MOLM-13) and 10,000/well (MV4-11). Cells were then incubated overnight prior to addition of compound or vehicle control.
(§4) (b) Test compounds were prepared from 10 mM DMSO stocks to give a final concentration range of 10 μM, 3 μM, 1 μM, 0.3 μM, […], 0.03 μM, 0.01 μM, […] vehicle control. The DMSO content was constant at 0.1%.
(§5) (c) Test compounds were incubated with the cells for 72 h at 37° C. 5% CO2 in a humidified atmosphere.
(§6) (d) Alamar blue 10% (v/v) was then added and incubated for a further 4 h, and fluorescent product detected using the BMG FLUOstar plate reader.
(§7) (e) Media only background values were subtracted and the data analysed using a 4-parameter logistic equation in GraphPad Prism.
In general terms: Resazurin is reduced to fluorescent resorufin, in cell work by metabolically active cells.

The subject of assay [3] is MV4-11 cells. The assay can be described thus: Inhibition of cell growth in MV4-11 cells (Alamar blue, 72 h). The note with it: Homo sapiens, 72 h incubation. The format is cell-based. As for the experimental part: as §1, §2, §3, §4, §5, §6, §7
For assay [4], the system named is thirty ovarian cancer cell lines. The note with it: cited from earlier work.
The subject of assay [5] is triple negative negative breast cancer cells. The note with it: cited from earlier work.
In assay [6] the test system is MYC oncogene driven murine spontaneous cancer model. The note with it: cited from earlier work.

Chain of Chk-1 kinase (O14757 whole entry): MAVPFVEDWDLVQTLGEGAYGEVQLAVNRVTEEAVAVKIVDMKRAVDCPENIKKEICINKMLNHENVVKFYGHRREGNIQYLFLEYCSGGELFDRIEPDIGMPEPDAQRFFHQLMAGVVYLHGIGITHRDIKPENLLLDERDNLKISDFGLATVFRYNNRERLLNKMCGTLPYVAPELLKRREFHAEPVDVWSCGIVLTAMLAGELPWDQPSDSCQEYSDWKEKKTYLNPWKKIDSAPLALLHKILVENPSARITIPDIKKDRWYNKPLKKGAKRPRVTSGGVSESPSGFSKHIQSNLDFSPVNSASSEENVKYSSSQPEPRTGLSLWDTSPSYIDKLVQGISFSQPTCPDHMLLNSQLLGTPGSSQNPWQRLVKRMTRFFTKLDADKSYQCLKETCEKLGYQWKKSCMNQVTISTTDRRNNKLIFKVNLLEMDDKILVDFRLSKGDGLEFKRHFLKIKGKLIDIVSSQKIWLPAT

Consider `COc1cc(CCNCC2CNCCO2)c(Cl)cc1NC(=O)Nc1cnc(C#N)cn1` (stereo not drawn) [Example 2, 1-(5-Chloro-2-methoxy-4-{2-[(morpholin-2-ylmethyl)-amino]-ethyl}-phenyl)-3-(5-cyano-pyrazin-2-yl)-urea hydrochloride], for which the figures for the IC50 in assay [1], in assay [2] and in assay [3] were 0.09 nM, 26 nM and 209 nM, respectively.

Turning to `COc1cc(CCNCCN2CCOCC2)c(Cl)cc1NC(=O)Nc1cnc(C#N)cn1` [Example 7, 1-{5-Chloro-2-methoxy-4-[2-(2-morpholin-4-yl-ethylamino)-ethyl]-phenyl}-3-(5-cyano-pyrazin-2-yl)-urea hydrochloride], the 50% inhibitory concentration (IC50) amounted to 0.8 nM in assay [1], 113 nM in assay [2] and 295 nM in assay [3].

Turning to `Cn1cc(-c2[nH]c3cc(NC(=O)[C@H](N)C4CCCCC4)cc4c3c2C=NNC4=O)cn1` [PF-00477736], the “growth of ovarian cancer cell lines” value in assay [4] is listed as “inhibits the growth”. Besides, in assay [5], the “growth of triple negative breast cancer cells” value is “inhibits the growth”. In assay [6], the “single agent activity in MYC oncogene driven murine spontaneous cancer model” value was “selective single agent activity”.

Take `COc1cc(CCNC[C@@H]2CNCCO2)c(Cl)cc1NC(=O)Nc1cnc(C#N)cn1` [Example 3, 1-(5-Chloro-2-methoxy-4-{2-[((R)-1-morpholin-2-ylmethyl)-amino]-ethyl}-phenyl)-3-(5-cyano-pyrazin-2-yl)-urea hydrochloride]: the IC50 in assay [1] turned out to be 0.14 nM; in assay [2] it was 81 nM; in assay [3], 173 nM.

Take `COc1cc(CCNC[C@H]2CNCCO2)c(Cl)cc1NC(=O)Nc1cnc(C#N)cn1` [Example 4, 1-(5-Chloro-2-methoxy-4-{2-[((S)-1-morpholin-2-ylmethyl)-amino]-ethyl}-phenyl)-3-(5-cyano-pyrazin-2-yl)-urea hydrochloride]: the results for the IC50 in assay [1], in assay [2] and in assay [3] were 0.05 nM, 49 nM and 111 nM, respectively.

Turning to `CC(C)Oc1cc(CCNCCN2CCOCC2)c(Cl)cc1NC(=O)Nc1cnc(C#N)cn1` [Example 8, 1-{5-Chloro-2-isopropoxy-4-[2-(2-morpholin-4-yl-ethylamino)-ethyl]-phenyl}-3-(5-cyano-pyrazin-2-yl)-urea hydrochloride], the IC50 in assay [1] amounted to 0.75 nM; in assay [2] it was 28 nM; in assay [3], 38 nM.

Regarding `COc1cc(CCN[C@@H](C)C2CCN(C(=O)C3CC3)CC2)c(Cl)cc1NC(=O)Nc1cnc(C#N)cn1` [Example 10, 1-(5-Chloro-4-{2-[(S)-1-(1-cyclopropane-carbonyl-piperidin-4-yl)-ethylamino]-ethyl}-2-methoxy-phenyl)-3-(5-cyano-pyrazin-2-yl)-urea hydrochloride], the IC50 came to 0.65 nM in assay [1], 35 nM in assay [2] and 80 nM in assay [3].

`COc1cc(CCNCCN2CCN(C)CC2)c(Cl)cc1NC(=O)Nc1cnc(C#N)cn1` [Example 9, 1-(5-Chloro-2-methoxy-4-{2-[2-(4-methyl-piperazin-1-yl)-ethylamino]-ethyl}-phenyl)-3-(5-cyano-pyrazin-2-yl)-urea hydrochloride]: the IC50 turned out to be 0.69 nM in assay [1], 29 nM in assay [2] and 56 nM in assay [3].
